# In patent US6541453B2, “Peptide derivatives” (Syngenta Limited, priority 1996, dated 2003):
# Read-outs that look alike come from different tables or passages of the source.
# How the values were obtained:
# [1] = Aqueous stability of peptide in McIlvaine's citric acid-phosphate buffer
# HLA-DR1 = target: T1, HLA-DR1 (Homo sapiens, UniProt P01903+P01911, A100R/D57E/F55L/F60I/F76Y/I96L/L162R/M171V/P40L/Q125E/R42F/V115G/Y59C); assay: Variant to Test A: peptide selectivity binding assay
# T1 construct: endogenous in cells; host or cells: Hom 2 cell line
# Experimental: The method used was a modification of that described by Gorga et al, 1987, J.Biol.Chem. 262, 16087-16094. Human HLA-DR antigens were purified from various cell lines by immunoaffinity chromatography. Briefly, 1×10^9-5×10^9 pelleted cells of the appropriate cell line selected from Hom 2 (source of DR1), BBF (source of DR2), AVL-B (source of DR3), JAH (source of DR4Dw4), JHAF (source of DR4Dw13) or PE117 (source of DR4Dwl4) were solubilised at approximately 4° C. in 50 ml of 5 mM EDTA (sodium salt), 50 mM Tris-HCL pH 7.4, 2% NP40, 150 mM NaCl, 1 mM iodoacetamide, 1 mM PMSF, by homogenisation with 10 strokes of a teflon glass homogeniser. […] Protein content was determined by a Biorad protein assay and purity by SDS-PAGE electrophoresis.
# 200 nM biotin-FHA307-320 in phosphate buffered saline (PBS) was incubated with either purified HLA-DR1, DR2, DR4Dw4, DR4Dw13 or DR4Dwl4 (2-20 μg/ml) in V-well microtitre plates (Nunc) with or without inhibitor peptides in assay buffer (PBS, 0.01% NP40 (Sigma.)) For DR3 inhibition, 400 nM Biotin-Ahx-(D)Ala-Ala-Ala-Cha-[…](D)Ala-OH [SEQ ID No. 14] was incubated with purified DR3 (20 μg/ml.), and incubated as above. After 48 hours, the incubates were treated, and absorbance readings taken as described in Test A. The inhibitory activity of peptides, expressed as IC50 values, was calculated using Microcal Origin software on a PC.
# [2] = Peptide content of extruded polymer depot formulation (loss on extrusion); format: physicochemical
# Experimental: About 20 mg of peptide is accurately weighed and sufficient polymer (50/50% molar poly(D,L-lactic acid/glycolic acid) copolymer of approximate weight average molecular weight 20 kD and approximate polydispersity of 1.7 as determined by size exclusion chromatography relative to polystyrene standards) added to produce an approximate 20% w/w mixture. This is dissolved in anhydride-free glacial acetic acid to produce an approximate 10% w/v solution. The solution is freeze dried and the resulting freeze dried product is stored under vacuum prior to use.
# About 100 mg of freeze dried material is loaded into the barrel of a small laboratory extruder and the plunger pushed down to consolidate the sample. The extruder is heated to between 90 and 95 ° C. and held at this temperature for 10 minutes before the freeze dried material is extruded under pressure to give a cylindrical extrudate of approximately 1 mm in diameter. […]
# Each standard is filtered through a 5 μm Millex PTFE filter and an aliquot of filtrate, together with aliquots of the solutions A, analysed by HPLC using duplicate sample injections. The peptide content of the extruded polymer depot formulation of peptide is calculated from the concentration of peptide in solutions A, which is determined by comparing the area of the peptide peak in solutions A with the area of the peptide peak from the standard solutions.
# [3] = Degradation of peptide on in vitro release from an extruded polymer depot
# Experimental: A solution of McIlvaine's citric acid-phosphate buffer solution at pH 7.6 containing 0.02% sodium azide, is filtered through a 0.22μ filter and stored at 4° C. Approximately 10 mg of extruded polymer depot containing peptide is placed in two small vials and 2 ml of the buffer solution added. The vials are then capped and stored in a water bath at 37° C. for a month. At suitable time points over a month, three 0.6 ml aliquots of release medium are removed from each vial and either analysed by HPLC or stored frozen in an HPLC vial at −18° C. prior to analysis by HPLC. 1.8 ml of the buffer solution is added to each vial containing the depot to replace the release medium that has been removed at each time point.
# The average amount of intact peptide in the release medium at each time point is determined by HPLC using duplicate sample injections by comparing the area of the peptide peak in the release media with the area of the peptide peak from standard buffer solutions of peptide at known concentrations. […] The average cumulative in vitro release profile of intact peptide and total peptide (intact peptide and peptide degradation products) is determined from the amounts of intact peptide and peptide degradation products in the release medium at each time point.
Structure (SMILES),aqueous stability ([1]; pH3),aqueous stability ([1]; pH7.6),IC50 (HLA-DR1),loss due to degradation on extrusion [2],degradation on release from depot formulation [3],aqueous stability (pH3),aqueous stability (pH7.6)
"COCCN(CCOC)C(=O)CN(CC(=O)N(CCOC)CCOC)C(=O)C[C@H](NC(=O)[C@H](C)NC(=O)[C@H](CCCNC(=N)N)NC(=O)[C@H](C)NC(=O)CCCCc1ccccc1)C(=O)N[C@H](C(=O)N[C@@H]1CCN([C@@H](C)C(=O)N[C@@H](C)C(=O)Nc2ccc(CC(N)=O)cc2)C1=O)[C@@H](C)O [Example 3, Phv-Ala-Arg-Ala-II-Thr-IIIa-Ala-Papa-NH2]",good aqueous stability,good aqueous stability,> 100 µM,minimal loss due to degradation on extrusion,minimal degradation on release,,
"COCCOCCOCCN(CCOCCOCCOC)C(=O)CN(CC(=O)N(CCOCCOCCOC)CCOCCOCCOC)C(=O)C[C@H](NC(=O)[C@H](C)NC(=O)[C@H](C)NC(=O)[C@H](CCCNC(=N)N)NC(=O)CCCCc1ccccc1)C(=O)N[C@H](C(=O)N[C@@H]1CCN([C@@H](C)C(=O)N[C@@H](C)C(=O)Nc2ccc(CC(N)=O)cc2)C1=O)[C@@H](C)O [Example 6, Phv-Arg-Ala-Ala-II-Thr-IIIa-Ala-Papa-NH2]",,,> 100 µM,minimal loss due to degradation on extrusion,,good aqueous stability,good aqueous stability
